Here are results for 13 compounds from patent US20220162192A1 (ESCAPE Bio, Inc., priority 2019, published 2022).

Assay [1] concerns the target T1, Recombinant G2019S-LRRK2 protein (Homo sapiens, UniProt Q5S007, G2019S).
T1 construct: purchased Life Technologies PV4881
The assay can be described thus: LanthaScreen Kinase Activity Assay (TR-FRET), G2019S-LRRK2. Format: biochemical. The following applies: class symbols; 25 μM ATP, 400 nM LRRKtide, 2.9 nM kinase, 60 min at room temperature. In short, it runs like this:
(§1)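 Recombinant wild-type or G2019S LRRK2 (2.9 nM final) phosphorylated fluorescein-LRRKtide (400 nM) with 25 μM ATP in 50 mM Tris pH 8.5, 5 mM MgCl2, 1 mM EGTA, 0.01% Brij-35, 2 mM DTT for 60 min at RT. After EDTA stop, Tb-anti-pERM TR-FRET (520/495 nm ratio) was read. IC50 values came from 11-point, 3-fold compound dilutions.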
A general note: TR-FRET usually uses a lanthanide donor and a delayed reading to cut background.

The target in assay [2] is T2, Recombinant wild type LRRK2 protein (Homo sapiens, UniProt Q5S007).
T2 construct: purchased Life Technologies PR8604B
T2 sequence (Q5S007 whole entry): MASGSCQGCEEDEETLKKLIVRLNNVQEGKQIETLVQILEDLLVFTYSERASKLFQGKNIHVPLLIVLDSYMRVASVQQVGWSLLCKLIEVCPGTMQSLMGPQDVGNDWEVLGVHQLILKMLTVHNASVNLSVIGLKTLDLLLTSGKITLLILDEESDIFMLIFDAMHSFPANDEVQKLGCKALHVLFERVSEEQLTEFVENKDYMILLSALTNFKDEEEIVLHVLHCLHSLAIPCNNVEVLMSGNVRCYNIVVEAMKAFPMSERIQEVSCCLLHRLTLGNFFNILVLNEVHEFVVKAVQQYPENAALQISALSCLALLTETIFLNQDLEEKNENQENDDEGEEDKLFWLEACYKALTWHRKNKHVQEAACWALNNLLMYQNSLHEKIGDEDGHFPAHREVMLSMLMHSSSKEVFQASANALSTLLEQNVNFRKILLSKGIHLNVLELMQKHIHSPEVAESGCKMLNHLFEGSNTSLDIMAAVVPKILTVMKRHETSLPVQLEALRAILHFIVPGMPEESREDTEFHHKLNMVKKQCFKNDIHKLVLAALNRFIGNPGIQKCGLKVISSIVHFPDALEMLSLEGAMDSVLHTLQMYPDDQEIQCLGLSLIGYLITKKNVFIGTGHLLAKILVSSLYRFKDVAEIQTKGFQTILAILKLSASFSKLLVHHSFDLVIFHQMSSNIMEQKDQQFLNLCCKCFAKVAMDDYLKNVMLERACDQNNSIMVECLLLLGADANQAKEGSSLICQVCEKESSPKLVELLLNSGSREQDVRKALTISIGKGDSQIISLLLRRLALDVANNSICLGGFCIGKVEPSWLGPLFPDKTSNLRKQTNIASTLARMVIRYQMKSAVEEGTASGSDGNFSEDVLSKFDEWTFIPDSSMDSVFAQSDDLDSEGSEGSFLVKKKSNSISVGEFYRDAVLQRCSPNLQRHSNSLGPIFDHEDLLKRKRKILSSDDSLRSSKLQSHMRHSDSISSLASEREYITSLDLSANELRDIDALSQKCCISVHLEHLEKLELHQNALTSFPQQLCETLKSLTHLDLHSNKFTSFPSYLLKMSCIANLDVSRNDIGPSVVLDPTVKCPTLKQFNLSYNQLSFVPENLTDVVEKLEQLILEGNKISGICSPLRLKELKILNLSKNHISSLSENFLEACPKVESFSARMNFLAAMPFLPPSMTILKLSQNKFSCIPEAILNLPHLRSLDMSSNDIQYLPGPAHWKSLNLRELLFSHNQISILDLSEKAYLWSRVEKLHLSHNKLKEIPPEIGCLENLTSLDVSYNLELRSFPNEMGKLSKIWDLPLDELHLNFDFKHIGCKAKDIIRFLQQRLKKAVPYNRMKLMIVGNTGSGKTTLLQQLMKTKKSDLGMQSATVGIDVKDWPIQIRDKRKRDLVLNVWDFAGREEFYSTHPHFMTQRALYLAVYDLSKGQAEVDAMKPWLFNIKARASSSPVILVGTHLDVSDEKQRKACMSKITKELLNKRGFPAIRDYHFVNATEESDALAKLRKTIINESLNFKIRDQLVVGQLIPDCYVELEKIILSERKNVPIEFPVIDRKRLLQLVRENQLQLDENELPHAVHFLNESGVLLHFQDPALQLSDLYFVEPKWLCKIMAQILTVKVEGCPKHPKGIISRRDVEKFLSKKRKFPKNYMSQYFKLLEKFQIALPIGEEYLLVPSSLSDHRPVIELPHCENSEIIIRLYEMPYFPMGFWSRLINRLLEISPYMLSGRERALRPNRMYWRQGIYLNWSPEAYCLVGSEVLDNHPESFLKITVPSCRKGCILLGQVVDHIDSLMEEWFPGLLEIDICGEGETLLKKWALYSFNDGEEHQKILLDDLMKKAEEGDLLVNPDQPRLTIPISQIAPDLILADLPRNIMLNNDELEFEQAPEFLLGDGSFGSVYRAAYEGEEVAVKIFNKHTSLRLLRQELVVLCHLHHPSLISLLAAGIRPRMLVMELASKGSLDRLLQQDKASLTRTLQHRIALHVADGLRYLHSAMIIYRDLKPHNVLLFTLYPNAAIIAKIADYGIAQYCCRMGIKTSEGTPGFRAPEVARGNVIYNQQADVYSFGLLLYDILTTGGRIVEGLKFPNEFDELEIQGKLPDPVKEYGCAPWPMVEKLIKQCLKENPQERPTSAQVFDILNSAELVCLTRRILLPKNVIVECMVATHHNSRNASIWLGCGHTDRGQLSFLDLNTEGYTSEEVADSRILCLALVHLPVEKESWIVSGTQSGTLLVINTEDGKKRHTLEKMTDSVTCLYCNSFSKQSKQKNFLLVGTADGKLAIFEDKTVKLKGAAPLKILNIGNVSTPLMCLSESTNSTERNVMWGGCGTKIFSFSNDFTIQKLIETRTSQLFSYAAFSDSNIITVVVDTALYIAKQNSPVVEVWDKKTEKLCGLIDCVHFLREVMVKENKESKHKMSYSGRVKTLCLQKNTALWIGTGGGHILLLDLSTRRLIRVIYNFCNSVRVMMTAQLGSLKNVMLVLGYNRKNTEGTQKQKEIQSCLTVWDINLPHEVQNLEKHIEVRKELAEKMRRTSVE
Description: LanthaScreen Kinase Activity Assay (TR-FRET), wild type LRRK2. The following applies: class symbols; 25 μM ATP, 400 nM LRRKtide, 2.9 nM kinase, 60 min at room temperature; read-out: LRRK2 WT IC50. Type of assay: biochemical. In short, it runs like this:
as §1

Where only a bound is given, the exact number is not on record here.

T1 sequence (Q5S007 whole entry G2019S): as the sequence (Q5S007 whole entry) above, with G2019S counted along it

In general, IC50 refers to the concentration that inhibits the measured activity by half. Consider `Cc1ncc(-c2n[nH]c3ccc(NC(=O)c4c(F)cc5c(cnn5C)c4F)cc23)s1` [Example 95, 4,6-Difluoro-1-methyl-N-(3-(2-methylthiazol-5-yl)-1H-indazol-5-yl)-1H-indazole-5-carboxamide], for which the IC50 in assay [1] and in assay [2] was at most 100 nM each time.

Regarding `Cn1nccc1-c1n[nH]c2ccc(NC(=O)c3c(F)cc4c(cnn4C)c3F)cc12` [Example 96, 4,6-Difluoro-1-methyl-N-(3-(1-methyl-1H-pyrazol-5-yl)-1H-indazol-5-yl)-1H-indazole-5-carboxamide], the results for the IC50 in assay [1] and in assay [2] were at most 100 nM and 100 to 1000 nM, respectively.

As to `Cc1ccc(-c2n[nH]c3ccc(NC(=O)c4c(F)cc5c(cnn5C)c4F)cc23)s1` [Example 97, 4,6-Difluoro-1-methyl-N-(3-(5-methylthiophen-2-yl)-1H-indazol-5-yl)-1H-indazole-5-carboxamide], the 50% inhibitory concentration (IC50) in assay [1] and in assay [2] was at most 100 nM each time.

With `Cn1ncc2c(F)c(C(=O)Nc3ccc4[nH]nc(-c5cncc(N6CCOCC6)c5)c4c3)c(F)cc21` [Example 98, 4,6-Difluoro-1-methyl-N-(3-(5-morpholinopyridin-3-yl)-1H-indazol-5-yl)-1H-indazole-5-carboxamide], the IC50 in assay [1] and in assay [2] was at most 100 nM in each case.

Consider `CCCc1n[nH]c2ccc(NC(=O)c3c(F)cc4c(cnn4C)c3F)cc12` [Example 99, 4,6-Difluoro-1-methyl-N-(3-propyl-1H-indazol-5-yl)-1H-indazole-5-carboxamide], for which the IC50 in assay [1] was at most 100 nM; in assay [2], 100 to 1000 nM.

Turning to `Cn1ncc2c(F)c(C(=O)Nc3ccc4[nH]nc(-c5ccsc5)c4c3)c(F)cc21` [Example 100, 4,6-Difluoro-1-methyl-N-(3-(thiophen-3-yl)-1H-indazol-5-yl)-1H-indazole-5-carboxamide], the IC50 in assay [1] and in assay [2] was at most 100 nM throughout.

As to `Cc1cc(-c2n[nH]c3ccc(NC(=O)c4c(F)cc5c(cnn5C)c4F)cc23)c(C)o1` [Example 101, N-(3-(2,5-Dimethylfuran-3-yl)-1H-indazol-5-yl)-4,6-difluoro-1-methyl-1H-indazole-5-carboxamide], the concentration for half-maximal inhibition (IC50) was at most 100 nM in assay [1] and 100 to 1000 nM in assay [2].

For `COc1ccncc1-c1n[nH]c2ccc(NC(=O)c3c(F)cc4c(cnn4C)c3F)cc12` [Example 102, 4,6-Difluoro-N-(3-(4-methoxypyridin-3-yl)-1H-indazol-5-yl)-1-methyl-1H-indazole-5-carboxamide], the 50% inhibitory concentration (IC50) in assay [1] was at most 100 nM; in assay [2], 100 to 1000 nM.

Take `COc1cnccc1-c1n[nH]c2ccc(NC(=O)c3c(F)cc4c(cnn4C)c3F)cc12` [Example 103, 4,6-Difluoro-N-(3-(3-methoxypyridin-4-yl)-1H-indazol-5-yl)-1-methyl-1H-indazole-5-carboxamide]: the half-inhibitory concentration (IC50) in assay [1] was at most 100 nM; in assay [2] it was 100 to 1000 nM.

For the compound `Cn1ncc2c(F)c(C(=O)Nc3ccc4[nH]nc(C5CCOC5)c4c3)c(F)cc21` (centres unmarked) [Example 104, 4,6-Difluoro-1-methyl-N-(3-(tetrahydrofuran-3-yl)-1H-indazol-5-yl)-1H-indazole-5-carboxamide], the IC50 fell in the range of 100 to 1000 nM in assay [1] and 1000 to 10000 nM in assay [2].

Turning to `Cn1ncc2c(F)c(C(=O)Nc3ccc4[nH]nc(C#N)c4c3)c(F)cc21` [Example 105, N-(3-Cyano-1H-indazol-5-yl)-4,6-difluoro-1-methyl-1H-indazole-5-carboxamide], the IC50 in assay [1] was at most 100 nM; in assay [2], 100 to 1000 nM.

As to `COc1n[nH]c2ccc(NC(=O)c3c(F)cc4c(cnn4C)c3F)cc12` [Example 106, 4,6-Difluoro-N-(3-methoxy-1H-indazol-5-yl)-1-methyl-1H-indazole-5-carboxamide], the half-maximal inhibitory concentration (IC50) is at most 100 nM in assay [1] and 1000 to 10000 nM in assay [2].

In the case of `Cn1ncc2cc(C(=O)Nc3ccc4[nH]nc(-c5ccccc5)c4c3)ccc21` [Example 107, 1-Methyl-N-(3-phenyl-1H-indazol-5-yl)-1H-indazole-5-carboxamide], the results for the IC50 in assay [1] and in assay [2] were 100 to 1000 nM and 1000 to 10000 nM, respectively.
